Source: paper PMC11618052, “Design, synthesis, and antiproliferative activity of new 1,2,3-triazole/quinazoline-4-one hybrids as dual EGFR/BRAF^V600E inhibitors” (RSC Advances, 2024)

How the values were obtained:
[1] = Cell viability MTT assay on MCF-10A normal cells; format: cell-based; conditions: human, MCF-10A normal mammary gland epithelial cells, MCF-10A cells, four days of incubation
Description: The viability of new compounds 8a–t was evaluated using the MCF-10A normal human mammary gland epithelial cell line. The cell viability of compounds 8a–t was examined using the MTT assay[36] after four days of incubation with MCF-10A cells. For more details, see Appendix A (ESI file). ^† […]
We evaluated the viability of new compounds 8a–t using the MCF-10A normal human mammary gland epithelial cell line. The cell viability of compounds 8a–t was examined using the MTT assay[36] after four days of incubation with MCF-10A cells.
4.2. Biological evaluation
4.2.1. Cytotoxic activity using MTT Assay and evaluation of IC 50
MTT assay was carried out to study the effect of compounds on mammary epithelial cells (MCF-10A). The medium in which cells were propagated contained Dulbecco's modified Eagle's medium (DMEM)/ Ham's F-12 medium (1:1) supplemented with epidermal growth factor (20 ng/mL), hydrocortisone (500 ng/mL), insulin (10 μg/mL), 2 mM glutamine and 10% foetal calf serum.
After every 2-3 days, the cells were passaged using trypsin ethylenediamine tetra acetic acid (EDTA). The cells were seeded at a density of 10^4 cells mL-1 in flat-bottomed culture plates containing 96 wells each. After 24 h, medium was removed from the plates and the compounds in (in 0.1% DMSO) were added (in 200 μL medium to yield a final concentration of 0.1% v/v) to the wells of plates. A single compound was designated with four wells followed by incubation of plates for 96h at 37°C. After incubation, medium was removed completely from the plates followed by addition of MTT (0.4 mg/mL in medium) to each well and subsequent incubation of plates for 3h. MTT (along with the medium) was removed and DMSO (150μL) was added to each well of the culture plates, followed by vortexing and subsequent measurement of absorbance (at 540 nm) using microplate reader. The data are shown as percentage inhibition of proliferation in comparison with controls containing 0.1% DMSO. […]

[2] = molecular target: T1, EGFR (Homo sapiens, UniProt P00533); assay: EGFR-TK inhibitory assay; format: biochemical; conditions: read-out: EGFR inhibition IC50 ± SEM
T1 construct: 645–1186; His6 (N); made in house; host or cells: Sf-9 insect cells (baculovirus; pBlueBacHis2B / pFASTBacHTc)
Description: Sf-9 cells were infected for 72h for protein expression. […]
centrifugation for 20 min.
Histidine-linked proteins were first eluted with 250 and then […]
using wash buffer. Europium-tagged antiphosphotyrosine antibody (75 µL, 400 ng) was added to each well followed by incubation of 1h and then washing of the plates using buffer. The enhancement solution was added to each well and the signal was recorded at excitation and […]
The autophosphorylation percentage inhibition by compounds was calculated using the following equation: […]

[3] = system: A-549 cells; assay: Cell cycle analysis by flow cytometry in A-549; format: cell-based, human; conditions: A-549, IC50 concentration of 8g, 24 hours
Description: (§1) The impact of compound 8g on cell cycle progression and apoptosis induction was examined in A-549 cells. […] We stained the cell line with PI/annexin V and performed flow cytometry using a BD FACS Caliber.[41] Refer to Appendix A ^† for more details.
The effects of 8g on cell cycle progression and apoptosis induction in A-549 cells were examined. […] We stained the cell line with PI/annexin V and performed flow cytometry using a BD FACS Caliber.[41] […] This means a cell cycle arrest at the G1 transition.

[4] = system: lung cancer (A-549); assay: Antiproliferative MTT assay, A-549; format: cell-based; conditions: Homo sapiens, A549, A-549 lung cancer cells, read-out: Antiproliferative activity IC50 ± SEM, A-549
Description: (§2) The median inhibitory concentration (IC50) and GI50 (mean IC50) for the four cancer cell lines were calculated. Appendix A ^† contains more details. […]

[5] = molecular target: BRAF^V600E; assay: BRAF^V600E kinase inhibitory assay
Description: V600E mutant BRAF kinase assay was performed to investigate the activity of tested compounds against BRAF. Mouse full-length GST-tagged BRAFV600E (7.5 ng, Invitrogen, PV3849) was pre-incubated with drug (1 µL) and assay dilution buffer (4 µL) for 60 min at 25 °C. In assay dilution buffer, a solution (5 µL) containing MgCl2 (30 mM), ATP (200 µM), recombinant human full length (200 ng) and N-terminal His-tagged MEK1 (Invitrogen) was added to start the assay, subsequent to incubation for 25 min at 25 °C. The assay was stopped using 5X protein denaturing buffer (LDS) solution (5 µL). To further denature the protein, heat (70° C) was applied for 5 min.
10 µL of each reaction was loaded into the precast plates and electrophoresis was allowed to proceed. After completion of electrophoresis, the front part of the precast gel plate (holding hot ATP) was cut and afterwards cast-off. The dried gel was developed using a phosphor screen. A

[6] = system: colon cancer (HT-29); assay: Antiproliferative MTT assay, HT-29; format: cell-based; conditions: Homo sapiens, HT-29 colon cancer cells, read-out: Antiproliferative activity IC50 ± SEM, HT-29
Description: as §2

[7] = system: A-549 cells; assay: Apoptosis induction assay, annexin V/PI, in A-549; format: cell-based, human; conditions: A-549, annexin V/PI, 24 hours
Description: as §1
A-549 cells was stained with annexin V/PI, cultured for 24 hours, and analyzed them to examine 8g's capacity to cause apoptosis.
Avoid direct exposure to intense light. The point, at which the substrate reaction is stopped, is often determined by the ELISA reader. Many ELISA readers record absorbance only up to 2.0
O.D. Therefore, the color development within individual microwells must be watched by the person running the assay and the substrate reaction stopped before positive wells are no longer properly detectable. […] Results must be read immediately after the Stop Solution is added or within one hour if the microwell strips are stored at 2 - 8°C in the dark. Read absorbance of each microwell on a spectrophotometer using 450 nm as the primary wavelength. […]
Apoptosis was determined by flow cytometry based on the Annexin-V-fluoresce in isothiocyanate (FITC) and propidium iodide (PI) staining kit (BD Pharmingen, San Diego, USA).
(FITC) and propidium iodide (PI) staining kit (BD Pharmingen, San Diego, USA). […] Subsequently, cells were analyzed by flow cytometry (Becton Dickinson, Franklin Lakes, and USA).

Chain of BRAF^V600E (P28028 whole entry V585E): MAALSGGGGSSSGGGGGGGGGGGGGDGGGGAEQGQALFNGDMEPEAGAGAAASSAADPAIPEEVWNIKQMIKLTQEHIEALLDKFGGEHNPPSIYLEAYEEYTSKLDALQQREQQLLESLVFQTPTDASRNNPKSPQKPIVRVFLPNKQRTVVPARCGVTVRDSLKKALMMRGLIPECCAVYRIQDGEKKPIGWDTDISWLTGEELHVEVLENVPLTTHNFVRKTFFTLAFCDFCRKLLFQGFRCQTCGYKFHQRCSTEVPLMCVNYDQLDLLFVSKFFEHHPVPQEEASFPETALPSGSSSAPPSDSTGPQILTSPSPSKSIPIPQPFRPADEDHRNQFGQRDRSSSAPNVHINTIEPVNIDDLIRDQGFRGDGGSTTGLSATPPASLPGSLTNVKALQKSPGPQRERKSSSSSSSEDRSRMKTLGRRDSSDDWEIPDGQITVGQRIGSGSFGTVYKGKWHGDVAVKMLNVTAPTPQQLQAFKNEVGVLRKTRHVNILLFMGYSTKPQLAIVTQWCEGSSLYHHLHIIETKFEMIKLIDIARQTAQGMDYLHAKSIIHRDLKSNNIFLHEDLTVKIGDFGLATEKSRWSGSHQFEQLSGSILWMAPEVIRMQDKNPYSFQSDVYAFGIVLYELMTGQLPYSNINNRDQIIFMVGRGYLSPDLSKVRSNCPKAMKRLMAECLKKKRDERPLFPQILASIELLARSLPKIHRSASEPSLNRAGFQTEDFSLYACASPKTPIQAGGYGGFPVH
T1 sequence (P00533 669-1210): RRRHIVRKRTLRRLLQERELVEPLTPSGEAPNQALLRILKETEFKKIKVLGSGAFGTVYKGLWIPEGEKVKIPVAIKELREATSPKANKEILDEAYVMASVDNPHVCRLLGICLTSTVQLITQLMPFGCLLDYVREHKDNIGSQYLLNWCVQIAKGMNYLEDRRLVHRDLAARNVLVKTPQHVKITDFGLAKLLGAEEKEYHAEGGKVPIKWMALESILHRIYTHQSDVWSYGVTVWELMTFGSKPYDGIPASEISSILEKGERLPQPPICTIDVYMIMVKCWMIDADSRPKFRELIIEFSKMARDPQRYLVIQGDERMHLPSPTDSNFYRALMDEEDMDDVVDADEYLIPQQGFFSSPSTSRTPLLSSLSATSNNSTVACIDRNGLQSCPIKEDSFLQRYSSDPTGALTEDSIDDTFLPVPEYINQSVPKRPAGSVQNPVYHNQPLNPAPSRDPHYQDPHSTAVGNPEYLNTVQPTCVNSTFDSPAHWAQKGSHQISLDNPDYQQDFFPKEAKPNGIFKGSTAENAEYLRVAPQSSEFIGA

| Compound | viability at 4 days, 50 µM [1] | IC50 [2] | Cells in G0/G1 phase (%DIP G1) [3] | IC50 [4] | IC50 [5] | IC50 [6] | Necrosis percentage [7] |
| --- | --- | --- | --- | --- | --- | --- | --- |
| COc1ccc(-n2cc(CSc3nc4ccccc4c(=O)n3-c3ccc(C)cc3)nn2)cc1 [Compound 8g, 2-(((1-(4-Methoxyphenyl)-1H-1,2,3-triazol-4-yl)methyl)thio)-3-(p-tolyl)quinazolin-4(3H)-one] | 88% | 68 ± 4 nM | 86% | 22 ± 1 nM | 47 ± 3 nM | 24 ± 1 nM | 4.39% |
| Cc1ccc(-n2cc(CSc3nc4ccccc4c(=O)n3-c3ccc(C)cc3)nn2)cc1 [Compound 8h, 2-(((1-(p-Tolyl)-1H-1,2,3-triazol-4-yl)methyl)thio)-3-(p-tolyl)quinazolin-4(3H)-one] | 92% | 74 ± 5 nM |  | 25 ± 1 nM | 55 ± 5 nM | 27 ± 1 nM |  |
